Two cell lines from the supplement of paper PMC10307832 can be followed below.

Common to all, as to assay: relative viability (nuclei count vs DMSO), 5 days (fraction); higher = more cells survive
Compound in the assay “Quizartinib + Luminespib”: CC(C)(C)c1cc(NC(=O)Nc2ccc(-c3cn4c(n3)sc3cc(OCCN5CCOCC5)ccc34)cc2)no1 [Quizartinib] + CCNC(=O)c1noc(-c2cc(C(C)C)c(O)cc2O)c1-c1ccc(CN2CCOCC2)cc1 [Luminespib] (partner 0.01 µM)
The gist of the method: (§1)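 Medians of duplicate plates are given as relative viability. That measure is the nuclei count in treated wells divided by the count in vehicle wells. Counts were taken on 4× images of lung cancer cell lines in 1536-well plates, 5 days after pin-tool dosing the day after seeding with one drug alone or a fixed anchor-drug dose plus five library-drug doses (not always all listed) in √10 steps.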

Compound in the assay “YM155 + Trametinib”: COCC[n+]1c2c(n(Cc3cnccn3)c1C)C(=O)c1ccccc1C2=O [YM155] + CC(=O)Nc1cccc(-n2c(=O)n(C3CC3)c(=O)c3c(Nc4ccc(I)cc4F)n(C)c(=O)c(C)c32)c1 [Trametinib] (partner 0.02 µM)
In short, it runs like this:
as §1

Compound in the assay “YM155 + Linsitinib”: COCC[n+]1c2c(n(Cc3cnccn3)c1C)C(=O)c1ccccc1C2=O [YM155] + C[C@]1(O)C[C@@H](c2nc(-c3ccc4ccc(-c5ccccc5)nc4c3)c3c(N)nccn32)C1 [Linsitinib] (partner 1 µM)
In short, it runs like this: as §1

Compound in the assay “YM155 + Decitabine”: COCC[n+]1c2c(n(Cc3cnccn3)c1C)C(=O)c1ccccc1C2=O [YM155] + Nc1ncn([C@H]2C[C@H](O)[C@@H](CO)O2)c(=O)n1 [Decitabine] (partner 2 µM)
The gist of the method:
as §1

On to SW 1573, for which the relative viability in the assay with Quizartinib + Luminespib (first compound 0.001 µM) came out at 0.163; in the assay with Quizartinib + Luminespib (first compound 0.003162 µM), 0.21; in the assay with Quizartinib + Luminespib (first compound 0.01 µM), 0.164; in the assay with Quizartinib + Luminespib (first compound 0.1 µM) it was 0.255; with YM155 + Trametinib (first compound 0.002 µM), 0.59; with YM155 + Trametinib (first compound 0.006325 µM), 0.453. For the same cell line, the relative viability with YM155 + Trametinib (first compound 0.02 µM) worked out at 0.16; with YM155 + Trametinib (first compound 0.06325 µM), 0.0853; with YM155 + Linsitinib (first compound 0.002 µM) it was 0.88; with YM155 + Linsitinib (first compound 0.006325 µM) it was 0.939; with YM155 + Linsitinib (first compound 0.02 µM), 0.769; in the assay with YM155 + Linsitinib (first compound 0.06325 µM) it was 0.686. The relative viability with YM155 + Decitabine (first compound 0.002 µM) turned out to be 0.369; in the assay with YM155 + Decitabine (first compound 0.006325 µM), 0.461; with YM155 + Decitabine (first compound 0.02 µM), 0.243; with YM155 + Decitabine (first compound 0.06325 µM) it was 0.136.
With UMC-11, the relative viability with Quizartinib + Luminespib (first compound 0.003162 µM) worked out at 0.954; in the assay with Quizartinib + Luminespib (first compound 0.01 µM) it was 1.13; with Quizartinib + Luminespib (first compound 0.03162 µM) it was 1.02; in the assay with Quizartinib + Luminespib (first compound 0.1 µM), 1.14; in the assay with YM155 + Trametinib (first compound 0.002 µM), 0.56; in the assay with YM155 + Trametinib (first compound 0.006325 µM) it was 0.745. Besides, the relative viability stood at 0.771 with YM155 + Trametinib (first compound 0.02 µM); 0.739 in the assay with YM155 + Trametinib (first compound 0.06325 µM); 0.993 in the assay with YM155 + Linsitinib (first compound 0.002 µM); 1.05 with YM155 + Linsitinib (first compound 0.006325 µM); 1.02 in the assay with YM155 + Linsitinib (first compound 0.02 µM); 1.03 with YM155 + Linsitinib (first compound 0.06325 µM). For the same cell line, the relative viability came to 0.551 with YM155 + Decitabine (first compound 0.002 µM), 0.574 in the assay with YM155 + Decitabine (first compound 0.006325 µM), 0.725 in the assay with YM155 + Decitabine (first compound 0.02 µM) and 0.626 with YM155 + Decitabine (first compound 0.06325 µM).
